According to patent US20250345314A1 (PUSAN NATIONAL UNIVERSITY INDUSTRY-UNIVERSITY COOPERATION …, priority 2024, published 2025):

Experiments:
Format in all cases: cell-based
[1] = test system: mesenchymal stem cells UCB #001, UCB #006, and UCB #192; assay: HGF secretion of mesenchymal stem cells by ELISA
Description: (§1) In addition, changes in HGF and PGE2 secretion in mesenchymal stem cells treated with rapamycin at various concentrations were analyzed by ELISA. The results of analyzing HGF and PGE2 secretion were shown in FIGS. 2B and 2C, respectively.
(§2) The effects of pirfenidone, a drug used clinically as an anti-fibrotic drug, on the survival rate of mesenchymal stem cells and the secretion of HGF and PGE2 were confirmed in the same manner as rapamycin. The results of confirming the survival rate of mesenchymal stem cells according to pirfenidone treatment were shown in FIG. 3A, and the results of analyzing HGF and PGE2 secretion were shown in FIGS. 3B and 3C, respectively.

[2] = test system: mesenchymal stem cells UCB #001, UCB #006, and UCB #192; assay: PGE2 secretion of mesenchymal stem cells by ELISA; details: pirfenidone treatment
Description: as §1, §2

[3] = test system: mesenchymal stem cells UCB #001, UCB #006, and UCB #192; assay: Cell viability of mesenchymal stem cells by CCK-8 assay
Description: The effects of rapamycin on the survival rate of mesenchymal stem cells and the secretion of HGF and PGE2 were confirmed. Specifically, the mesenchymal stem cells UCB #001, UCB #006, and UCB #192 were treated with rapamycin at various concentrations of 1.25, 2.5, 5, 10, 20, 40, and 80 ng/ml for 24 hours.
as §2

| SMILES | HGF secretion ([1]; pirfenidone 20 μg/ml) | HGF secretion ([1]; pirfenidone 4 to 10 μg/ml) | PGE2 secretion [2] | cell viability ([3]; UCB #001, pirfenidone 1 to 6 μg/ml, CCK-8) | concentration at which cytotoxicity was exhibited ([3]; UCB #006 and UCB #192, CCK-8) | cell viability ([3]; UCB #006 and UCB #192, pirfenidone 1 to 10 μg/ml, CCK-8) | concentration at which cytotoxicity was exhibited ([3]; mesenchymal stem cells, 24 hours, CCK-8) |
| --- | --- | --- | --- | --- | --- | --- | --- |
| Cc1ccc(=O)n(-c2ccccc2)c1 [pirfenidone] | reduced | did not affect | no significant change | increased | ≥ 20000 ng/mL | increased | – |
| CO[C@H]1C[C@@H]2CC[C@@H](C)[C@@](O)(O2)C(=O)C(=O)N2CCCC[C@H]2C(=O)O[C@H]([C@H](C)C[C@@H]2CC[C@@H](O)[C@H](OC)C2)CC(=O)[C@H](C)/C=C(\C)[C@@H](O)[C@@H](OC)C(=O)[C@H](C)C[C@H](C)/C=C/C=C/C=C/1C [rapamycin] | – | – | – | – | – | – | ≥ 80 ng/mL |
